Here are results for three compounds from publication PMC7914117, “Ginkgolic acid and anacardic acid are specific covalent inhibitors of SARS-CoV-2 cysteine proteases” (Cell & Bioscience, 2021).

Usually IC50 stands for the concentration needed to halve the response being measured. Usually CC50 stands for the concentration at which the toxic effect on the cells reaches its halfway point. A low value points to greater toxicity to the cells. One may read the viability as the share of living cells, or the viability signal relative to a control. Higher therefore signals better survival. Broadly, the inhibition is the relative decrease from the control value, in per cent.

For one data set, the target named is SARS-CoV-2 3CL^pro (Severe acute respiratory syndrome coronavirus 2, UniProt P0DTD1). Briefly: SARS-CoV-2 3CLpro FRET enzymatic inhibition assay. It counts as biochemical. The conditions noted are these: for IC50: 250 nM 3CLpro, 4 mM DTT, 30 min pre-incubation, 50 µM substrate, mean ± SD, triplicate, read-out: IC50 against 3CL^pro enzymatic activity; for IC50 shift upon addition of reducing reagent: 3CLpro assay in absence or presence of 4 mM DTT; for sensitivity of 3CLpro compared to PLpro: ratio of IC50 values, PLpro vs 3CLpro. On the procedure:
The SARS-CoV-2 3CL^pro was prokaryotic expressed and purified as previously described with slight modification. For enzymatic inhibition assay, the recombinant 3CL^pro (250 nM at a final concentration) was incubated with increasing concentrations of each compound in 90 µL reaction buffer (50 mM Tris–HCl, pH 7.3, 1 mM EDTA, 4mM DTT) for 30 min [6]. The reaction was initiated by adding 10 µL FRET-based peptidic substrate (Dabcyl-KTSAVLQ/SGFRKME-Edans) with a final concentration of 50 µM. The fluorescence signal was immediately measured every 20 s for 30 min using a Bio-Tek Synergy4 plate reader with filters for excitation at 336/20 nm and emission at 490/20 nm. The V0 of reactions were calculated to indicate the enzymatic activities. Three independent experiments were performed and IC50 curves were analyzed using four-parameter logistic regression in GraphPad Prism software.
For mechanism of action study, various concentrations of ginkgolic acid were mixed and incubated with increasing concentrations of 3CL^pro (100–1000 nM) in 90 µL reaction buffer for 30 min. Reactions were initiated by adding 10 µL substrate with a final concentration of 50 µM. At each concentration of ginkgolic acid, the V0s were plotted with the concentrations of 3CL^pro, and the data was fitted using linear regression analysis in GraphPad Prism software.

Data set [1] is described as follows: Cell-Titer Glo cytotoxicity assay. The conditions noted are these: African green monkey, Vero-E6 cells; for CC50 at 48 h: mean ± SD, triplicate; for viability at 48 h, 20 µM: at 20 µM. Format: cell-based. On the procedure: (§1) To estimate the cytotoxicity of test compounds on VERO-E6 cells, Cell-Titer Glo® luminescent cell viability assay (Promega) was performed according to the manufacturer’s instruction. […] The half of the cytotoxic concentration (CC50) values were calculated from the percentages of cells whose viability was inhibited by test compounds at various concentrations.

Another data set has as its system Vero-E6 cells. Briefly: Cell-Titer Glo cytotoxicity assay. The conditions noted are these: 48 h, mean ± SD, triplicate. It counts as cell-based. On the procedure: as §1
Another data set addresses SARS-CoV-2 PL^pro (Severe acute respiratory syndrome coronavirus 2, UniProt P0DTD1). Briefly: SARS-CoV-2 PLpro fluorescence-based enzymatic inhibition assay (Z-RLRGG-AMC substrate). It counts as biochemical. The conditions noted are these: for IC50: mean ± SD, triplicate, read-out: IC50 against PL^pro enzymatic activity; for inhibition at 20 µM: read-out: inhibition against PL^pro in high-throughput screen.

The mark [2] stands for this setting: 100 nM PLpro, 4 mM DTT, 30 min pre-incubation, 30 µM substrate.
[3] abbreviates: compounds at 20 µM, 100 nM PLpro, 30 min pre-incubation, 4 mM DTT, 30 µM substrate, RFU at 10 min.

With `CCCCCCCCCCCCCCCc1cccc(O)c1C(=O)O` [anacardic acid], on SARS-CoV-2 3CL^pro, the 50% inhibitory concentration (IC50) is 2.07 ± 0.35 µM, the “IC50 shift upon addition of reducing reagent” value was “no significant IC50 shift” and the “sensitivity of 3CLpro compared to PLpro” value is given as “about 10 times”. In data set [1], this compound gave a CC50 at 48 h of 25.5 ± 0.69 µM and a viability at 48 h, 20 µM above 90%. Besides, in the data set on Vero-E6 cells, the CC10 was 22.27 ± 0.26 µM. Also, at SARS-CoV-2 PL^pro (setting [2]), the IC50 was determined as 17.1 ± 1.3 µM. The inhibition at 20 µM on SARS-CoV-2 PL^pro (setting [3]) is above 50%.
On to `CCCCCC/C=C\CCCCCCCc1cccc(O)c1C(=O)O` [ginkgolic acid], for which, at SARS-CoV-2 3CL^pro, the IC50 was 1.79 ± 0.58 µM, the “IC50 shift upon addition of reducing reagent” value is listed as “no significant IC50 shift” and the “sensitivity of 3CLpro compared to PLpro” value is on record as “about 10 times”. In addition, the “type of enzymatic inhibition of 3CL^pro” value on SARS-CoV-2 3CL^pro (V0 vs enzyme concentration (100–1000 nM) at different inhibitor concentrations) is listed as “irreversible inhibitor”. Also, in data set [1], the CC50 at 48 h worked out at 27.9 ± 0.77 µM and the viability at 48 h, 20 µM was above 90%. Moreover, in the data set with Vero-E6 cells, the CC10 came to 21.38 ± 0.52 µM. The IC50 at SARS-CoV-2 PL^pro (setting [2]) was 16.3 ± 0.64 µM. Moreover, the “type of enzymatic inhibition of PL^pro” value at SARS-CoV-2 PL^pro (V0 vs enzyme concentration (25–150 nM) at different inhibitor concentrations) is “irreversible inhibitor”. Besides, the inhibition at 20 µM on SARS-CoV-2 PL^pro (setting [3]) is above 50%.
Consider `C/C1=C2/[N-][C@H]([C@H](CC(N)=O)[C@@]2(C)CCC(=O)NC[C@@H](C)OP(=O)([O-])O[C@H]2[C@@H](O)[C@@H](n3cnc4cc(C)c(C)cc43)O[C@@H]2CO)[C@]2(C)N=C(/C(C)=C3N=C(/C=C4N=C1[C@@H](CCC(N)=O)C\4(C)C)[C@@H](CCC(N)=O)[C@]\3(C)CC(N)=O)[C@@H](CCC(N)=O)[C@]2(C)CC(N)=O.[CH3-].[Co+3]` [methylcobalamin, reference compound], for which the “inhibition against PL^pro in high-throughput screen” value against SARS-CoV-2 PL^pro (setting [3]) is reported as “more than 50%”.
